The source of these data is US20260314594A1, “METHODS OF ENHANCING POLLEN VIABILITY OF PLANTS” (ACADEMIA SINICA, priority 2022, published 2026).

In experiment [1] the test system is Easter lily pollen. Kind of experiment: Easter lily pollen germination in vitro (germination rate in germination medium). Format: cell-based, Easter lily (Lilium longiflorum Thunb. cv White Heaven). The protocol:
Pollen and stigma exudate (SE) were collected from more than ten thousand Easter lily (Lilium longiflorum Thunb. cv White Heaven) flowers. After dehydration at room temperature for 4 to 5 days, pollen grains were collected from dehydrated anthers. Pistils were harvested and used for SE collection. In general, 20~50 μL SE collected from a single ‘White Heaven’ pistil will be stored at −20° C. for further usage.
(§1) Lily pollen was cultured in a germination medium (GM) containing 12.7 mM CaCl2), 1.62 mM H3BO3, 9.9 mM KNO3, and 10% sucrose, pH5.2 at 28° C. for 2 hours with shaking at 50 rpm in the dark. Tobacco (Nicotiana tabacum) pollen was germinated in GM containing 1 mM CaCl2), 1 mM KCl, 1.6 mM H3BO3, 5% sucrose, 30 μM CuSO4, 15 mM MES, and 12.5% PEG4000, pH 5.9 at 25° C. for 2 hours with shaking at 50 rpm in the dark. Arabidopsis (Arabidopsis thaliana, Col-0) pollen was germinated in GM containing 5 mM CaCl2), 1 mM MgSO4·5 mM KCl·0.01% H3BO3, 10% Sucrose, pH 7.5 at 25° C. for 2 hours with shaking at 50 rpm in the dark. An Olympus BX51 microscope recorded germinating pollen. Pollen germination rate was calculated using the formula below: Pollen germination rate (%)=number of germinated pollen grains per field of view by the total number of pollen grains per field of view X100.
(§2) ImageJ measured pollen tube length and Western blot band intensity quantification. All P-values were calculated by One-way ANOVA (Analysis Of Variance) and Tukey's post hoc tests with SPSS
To validate the effect of HOPA on the stimulation of pollen germination, lily pollen grains were cultured in the GM containing 0, 10, 50, 100, and 200 ppm (part per million) of artificial HOPA for different time intervals.
SE has shown its effect on restoring the lost germination capability of pollen stored at low temperatures for a specific period (FIGS. 1A-1E). To validate whether the purified HOPA is the cause to rescue pollen germination capability, pollen grains stored for different time intervals (1 day, 2.5, or 5 months) were subjected to germination assays with or without 100 ppm artificial HOPA present in the GM.
High temperature is an adverse factor for pollen viability (Rang et al., 2011). We further investigated the effect of HOPA on the restoration of pollen viability after heat damage. Freshly collected lily pollen were pre-heat treatments at 28, 37, and 42° C. for 4 hours, followed by subjecting for germination in the GM with or without HOPA at 28° C. for 2 hours.
Low temperature is another adverse factor for pollen germination and growth. […] For the control, about 8% of pollen was germinated after 3-hour culture, but HOPA rescued the pollen germination up to about 29% germination rate (FIGS. 6E-6F).

In experiment [2] the test system is lily pollen tube. Kind of experiment: Lily pollen tube elongation. The format is cell-based, Easter lily (Lilium longiflorum Thunb. cv White Heaven). To be noted: 100 ppm HOPA. The protocol: as §1, §2
We germinated lily pollen in GM with or without 100 ppm HOPA at 28° C. for different time intervals to obtain their growth rates.

For experiment [3], the system named is Arabidopsis thaliana (Col-0) pollen. Kind of experiment: Arabidopsis pollen germination in vitro. Format: cell-based. To be noted: HOPA at 25° C. for 2 hours; FIG. 8B: 200 ppm, 2.5 hours. The protocol:
as §1, with “Arabidopsis (Arabidopsis thaliana, Col-0) pollen was germinated in GM containing 5 mM CaCl2), 1 mM MgSO4·5 mM KCl·0.01% H3BO3, 10% Sucrose, pH 7.5 at 25° C. for 2 hours with shaking at 50 rpm in the dark.” left out
as §2
(§3) To investigate the possibility that HOPA can stimulate diverse-species pollen germination, we examined Nicotiana tabacum and Arabidopsis thaliana (Col-0) pollen in GM with or without HOPA at 25° C. for 2 hours. […] Those results reveal the promising universal function of HOPA in stimulating pollen germination.

The test system of experiment [4] is Nicotiana tabacum pollen. Kind of experiment: Tobacco pollen germination in vitro. The format is cell-based. As to conditions: HOPA at 25° C. for 2 hours; FIG. 8A: 50-1600 ppm, 1.5 hours. The protocol: as §1, with “Tobacco (Nicotiana tabacum) pollen was germinated in GM containing 1 mM CaCl2), 1 mM KCl, 1.6 mM H3BO3, 5% sucrose, 30 μM CuSO4, 15 mM MES, and 12.5% PEG4000, pH 5.9 at 25° C. for 2 hours with shaking at 50 rpm in the dark.” left out
as §2, §3

SMILES strings stand for the structures.

On to `CC(C)(CO)C(O)C(=O)NCCCC(=O)O` (centres unmarked) [HOPA, hopantenic acid], for which, in experiment [1] (0, 10, 50, 100 and 200 ppm HOPA in GM, 28° C., FIG. 5: 2 hours, pollen stored at 4° C. one week), the “pollen germination rate, HOPA dose response” value was “linear-gradient increase in a HOPA dosage-dependent manner”. In addition, the “pollen germination, significance of stimulation” value in experiment [1] (10-200 ppm HOPA, 28° C., 2 hours, pollen stored at 4° C. one week (FIGS. 5A-5G)) is reported as “significantly stimulates Easter lily pollen germination”. Besides, the “pollen germination rate at low temperature” value in experiment [1] (18° C., 3-hour culture, 100 ppm HOPA, control about 8% (FIGS. 6E-6F)) is recorded as “about 29%”. The “pollen germination at low temperature, in words” value in experiment [1] (18° C., 3-hour growth, 100 ppm HOPA (FIGS. 6E-6F)) is on record as “partially rescued pollen germination rate at low-temperature conditions”. For the same compound, the “pollen germination rates of HOPA compared with 1/10 SE” value in experiment [1] (100-200 ppm HOPA (FIG. 5G) vs 1/10 SE (about 785 ppm HOPA)) was “comparable effects in pollen germination rates”. In addition, the “pollen germination of long-time stored pollen” value in experiment [1] (pollen stored at 4° C. for 1 day, 2.5 or 5 months, 100 ppm HOPA, 28° C., 2 hours (FIGS. 6A-6B)) is “validly stimulates pollen germination in all stored pollen grains, especially for 5-month stored pollen germination”. In addition, the “pollen germination after heat damage” value in experiment [1] (pre-heat treatment at 28, 37 and 42° C. for 4 hours, then 100 ppm HOPA at 28° C. for 2 hours (FIGS. 6C-6D)) is “compromised the heat stress causing a decrease in pollen germination”. In addition, in experiment [2] (28° C. (FIG. 7), compared to GM only), the “pollen tube elongation rate, in words” value was “accelerated the pollen tube elongation rate”. Moreover, the “pollen tube elongation rate (slope)” value in experiment [2] (28° C., different time intervals, control slope 0.0066 (FIG. 7)) was 0.0109. Also, the “Arabidopsis thaliana pollen germination” value in experiment [3] was “significantly stimulated”. In addition, in experiment [4], the “Nicotiana tabacum pollen germination” value was “significantly stimulated”.
